Data taken from ChEMBL document CHEMBL4837181 (Eur J Med Chem, 2020).
One block for each compound: values may come before it.

Columns and labels:
[1] = Dose normalized Cmax in rat at 10 mg/kg, po measured upto 72 hrs by LC-MS/MS analysis; type: ADME, organism-based; settings: in vivo
[2] = Dose normalized AUC (0 to infinity) in rat at 10 mg/kg, po measured upto 72 hrs by LC-MS/MS analysis; type: ADME, organism-based; settings: in vivo
[3] = Tmax in mouse at 287 micromol/kg administered as single dose; type: ADME; settings: in vivo, dose 287 µmol/kg
[4] = Half life in mouse at 143 micromol/kg administered as single dose; type: ADME; settings: in vivo, dose 143 µmol/kg
[5] = Half life in mouse at 287 micromol/kg administered as single dose; type: ADME; settings: in vivo, dose 287 µmol/kg
[6] = Half life in mouse at 573 micromol/kg administered as single dose; type: ADME; settings: in vivo, dose 573 µmol/kg
[7] = Half life in mouse at 1147 micromol/kg administered as single dose; type: ADME; settings: in vivo, dose 1147 µmol/kg
[8] = Cmax in male cynomolgus monkey at 15 mg/kg, iv measured on day 1; type: ADME, organism-based, Macaca fascicularis; parameters: route intravenous, dose 15 mg/kg; settings: in vivo
[9] = Cmax in female cynomolgus monkey at 15 mg/kg, iv measured on day 1; type: ADME, organism-based, Macaca fascicularis; parameters: route intravenous, dose 15 mg/kg; settings: in vivo
[10] = Cmax in female cynomolgus monkey at 75 mg/kg, po measured on day 1; type: ADME, organism-based, Macaca fascicularis; parameters: route oral, dose 75 mg/kg; settings: in vivo
[11] = Cmax in female cynomolgus monkey at 75 mg/kg, po BID measured on day 8; type: ADME, organism-based, Macaca fascicularis; parameters: route oral, dose 75 mg/kg; settings: in vivo
[12] = Cmax in male cynomolgus monkey at 75 mg/kg, po BID measured on day 8; type: ADME, organism-based, Macaca fascicularis; parameters: route oral, dose 75 mg/kg; settings: in vivo
[13] = Cmax in female cynomolgus monkey at 150 mg/kg, po measured on day 8; type: ADME, organism-based, Macaca fascicularis; parameters: route oral, dose 150 mg/kg; settings: in vivo
[14] = Cmax in male cynomolgus monkey at 150 mg/kg, po BID measured on day 8; type: ADME, organism-based, Macaca fascicularis; parameters: route oral, dose 150 mg/kg; settings: in vivo
[15] = Cmax in male cynomolgus monkey at 225 mg/kg, po measured on day 1; type: ADME, organism-based, Macaca fascicularis; parameters: route oral, dose 225 mg/kg; settings: in vivo
[16] = Cmax in female cynomolgus monkey at 375 mg/kg, po BID measured on day 8; type: ADME, organism-based, Macaca fascicularis; parameters: route oral, dose 375 mg/kg; settings: in vivo
[17] = Cmax in female cynomolgus monkey at 675 mg/kg, po measured on day 1; type: ADME, organism-based, Macaca fascicularis; parameters: route oral, dose 675 mg/kg; settings: in vivo
[18] = Cmax in male cynomolgus monkey at 675 mg/kg, po measured on day 1; type: ADME, organism-based, Macaca fascicularis; parameters: route oral, dose 675 mg/kg; settings: in vivo
[19] = Tmax in female cynomolgus monkey at 75 mg/kg, po measured on day 8; type: ADME, organism-based, Macaca fascicularis; settings: in vivo
[20] = Tmax in male cynomolgus monkey at 75 mg/kg, po BID measured on day 8; type: ADME, organism-based, Macaca fascicularis; settings: in vivo
[21] = Tmax in male cynomolgus monkey at 150 mg/kg, po BID measured on day 8; type: ADME, organism-based, Macaca fascicularis; settings: in vivo
[22] = Tmax in male cynomolgus monkey at 225 mg/kg, po measured on day 1; type: ADME, organism-based, Macaca fascicularis; settings: in vivo
[23] = Tmax in female cynomolgus monkey at 375 mg/kg, po BID measured on day 8; type: ADME, organism-based, Macaca fascicularis; settings: in vivo
[24] = Tmax in female cynomolgus monkey at 675 mg/kg, po measured on day 1; type: ADME, organism-based, Macaca fascicularis; settings: in vivo
[25] = Tmax in male cynomolgus monkey at 675 mg/kg, po measured on day 1; type: ADME, organism-based, Macaca fascicularis; settings: in vivo
[26] = AUC (0 to 24 hrs) in female cynomolgus monkey at 75 mg/kg, po measured on day 1; type: ADME, organism-based, Macaca fascicularis; parameters: time < 24 hr, route oral, dose 75 mg/kg; settings: in vivo
[27] = AUC (0 to 24 hrs) in female cynomolgus monkey at 150 mg/kg, po BID measured on day 8; type: ADME, organism-based, Macaca fascicularis; parameters: time < 24 hr, route oral, dose 150 mg/kg; settings: in vivo
[28] = Half life in female cynomolgus monkey at 150 mg/kg, po measured on day 8; type: ADME, organism-based, Macaca fascicularis; settings: in vivo
[29] = AUC (0 to 24 hrs) in male cynomolgus monkey at 150 mg/kg, po BID measured on day 8; type: ADME, organism-based, Macaca fascicularis; parameters: time < 24 hr, route oral, dose 150 mg/kg; settings: in vivo
[30] = Half life in male cynomolgus monkey at 150 mg/kg, po BID measured on day 8; type: ADME, organism-based, Macaca fascicularis; settings: in vivo
[31] = AUC (0 to 24 hrs) in male cynomolgus monkey at 225 mg/kg, po measured on day 1; type: ADME, organism-based, Macaca fascicularis; parameters: time < 24 hr, route oral, dose 225 mg/kg; settings: male, in vivo
[32] = AUC (0 to 24 hrs) in female cynomolgus monkey at 675 mg/kg, po measured on day 1; type: ADME, organism-based, Macaca fascicularis; parameters: time < 24 hr, route oral, dose 675 mg/kg; settings: in vivo
[33] = Half life in female cynomolgus monkey at 675 mg/kg, po measured on day 1; type: ADME, organism-based, Macaca fascicularis; settings: in vivo
[34] = AUC (0 to 24 hrs) in male cynomolgus monkey at 675 mg/kg, po measured on day 1; type: ADME, organism-based, Macaca fascicularis; parameters: time < 24 hr, route oral, dose 675 mg/kg; settings: in vivo
[35] = Half life in male cynomolgus monkey at 675 mg/kg, po measured on day 1; type: ADME, organism-based, Macaca fascicularis; settings: in vivo
[36] = Drug accumulation in rat at 100 to 900 mg/kg, po BID; type: ADME, organism-based; settings: in vivo, dose 100-900 mg/kg
[37] = Drug accumulation in monkey at 75 to 375 mg/kg, po BID; type: ADME, organism-based, Macaca mulatta; settings: rhesus monkey, in vivo, dose 75-375 mg/kg
[38] = AUC (0 to 12 hrs) in po BID dosed cynomolgus monkey administered for 28 days; type: ADME, organism-based, Macaca fascicularis; parameters: route oral, time 28 day; settings: in vivo
[39] = Change in normalised Cmax in rat at 10 mg/kg, po measured upto 72 hrs by LC-MS/MS analysis; type: ADME, organism-based; settings: in vivo
[40] = Change in normalised AUCinfinity in rat at 10 mg/kg, po measured upto 72 hrs by LC-MS/MS analysis; type: ADME, organism-based; settings: in vivo
[41] = Change in Cmax in rat at 37 umol/kg, po measured upto 72 hrs by LC-MS/MS analysis; type: ADME, organism-based; settings: in vivo, at 37 µmol/kg
[42] = Change in Cmax in rat at 185 umol/kg, po measured upto 72 hrs by LC-MS/MS analysis; type: ADME, organism-based; settings: in vivo, at 185 µmol/kg
[43] = Change in Cmax in rat at 500 umol/kg, po measured upto 72 hrs by LC-MS/MS analysis; type: ADME, organism-based; settings: in vivo, at 500 µmol/kg
[44] = Change in AUC (infinity) in rat at 37 umol/kg, po measured upto 72 hrs by LC-MS/MS analysis; type: ADME, organism-based; settings: in vivo, at 37 µmol/kg
[45] = Change in AUC(infinity) in rat at 500 umol/kg, po measured upto 72 hrs by LC-MS/MS analysis; type: ADME, organism-based; settings: in vivo, at 500 µmol/kg
[46] = Change in Cmax in cynomolgus monkey at 92 umol/kg, po measured after 0.083 to 48 hrs by LC-MS/MS analysis; type: ADME, organism-based, Macaca fascicularis; settings: in vivo, at 92 µmol/kg, time 0.083-48 hrs
[47] = Change in Cmax in cynomolgus monkey at 275 umol/kg, po measured after 0.083 to 48 hrs by LC-MS/MS analysis; type: ADME, organism-based, Macaca fascicularis; settings: in vivo, at 275 µmol/kg, time 0.083-48 hrs
[48] = Change in Cmax in cynomolgus monkey at 825 umol/kg, po measured after 0.083 to 48 hrs by LC-MS/MS analysis; type: ADME, organism-based, Macaca fascicularis; settings: in vivo, at 825 µmol/kg, time 0.083-48 hrs
[49] = Change in AUC(infinity) in cynomolgus monkey at 92 umol/kg, po measured after 0.083 to 48 hrs by LC-MS/MS analysis; type: ADME, organism-based, Macaca fascicularis; settings: in vivo, at 92 µmol/kg, time 0.083-48 hrs
[50] = Change in AUC(infinity) in cynomolgus monkey at 275 umol/kg, po measured after 0.083 to 48 hrs by LC-MS/MS analysis; type: ADME, organism-based, Macaca fascicularis; settings: in vivo, at 275 µmol/kg, time 0.083-48 hrs
[51] = Change in AUC(infinity) in cynomolgus monkey at 825 umol/kg, po measured after 0.083 to 48 hrs by LC-MS/MS analysis; type: ADME, organism-based, Macaca fascicularis; settings: in vivo, at 825 µmol/kg, time 0.083-48 hrs

- Cmax/dose [1]: 17.3 µM
- AUC/dose [2]: 508 µM·h
- Tmax [3]: 0.6 h
- half-life [4]: 3 h
- half-life [5]: 2.8 h
- half-life [6]: 3.1 h
- half-life [7]: 3.4 h
- Cmax [8]: 39.5 µM
- Cmax [9]: 43.1 µM
- Cmax [10]: 55 µM
- Cmax [11]: 59.3 µM
- Cmax [12]: 47.3 µM
- Cmax [13]: 79 µM
- Cmax [14]: 93.4 µM
- Cmax [15]: 97.7 µM
- Cmax [16]: 203 µM
- Cmax [17]: 387 µM
- Cmax [18]: 311 µM
- Tmax [19]: 1 h
- Tmax [20]: 1 h
- Tmax [21]: 2 h
- Tmax [22]: 2 h
- Tmax [23]: 2.5 h
- Tmax [24]: 2 h
- Tmax [25]: 4 h
- AUC(0-t) at 24 h [26]: 177 µM·h
- AUC at 24 h [27]: 403 µM·h
- half-life [28]: 2.7 h
- AUC at 24 h [29]: 509 µM·h
- half-life [30]: 2.8 h
- AUC(0-t) at 24 h [31]: 525 µM·h
- AUC [32]: 6450 µM·h
- half-life [33]: 10.2 h
- AUC [34]: 4470 µM·h
- half-life [35]: 4.3 h
- Drug metabolism [36]: Metabolite_Notdetected
- Drug metabolism [37]: Metabolite_Notdetected
- AUC at 672 h [38]: 320 µM·h
- Activity [39]: 0%
- Activity [40]: 0%
- Activity [41]: 0%
- Activity [42]: 0%
- Activity [43]: 0%
- Activity [44]: 0%
- Activity [45]: 0%
- Activity [46]: 0%
- Activity [47]: 0%
- Activity [48]: 0%
- Activity [49]: 0%
- Activity [50]: 0%
- Activity [51]: 0%
SMILES: Cn1cc(C[C@@H](N)C(=O)O)c2ccccc21 [INDOXIMOD]

SMILES: CCOC(=O)[C@@H](Cc1cn(C)c2ccccc12)NC(=O)[C@@H](N)CC(C)C.Cl
- Cmax/dose [1]: 16.2 µM
- AUC/dose [2]: 888 µM·h
- Tmax [3]: 0.5 h
- half-life [4]: 2.9 h
- half-life [5]: 2.2 h
- half-life [6]: 3.1 h
- half-life [7]: 3.2 h
- Cmax [8]: 0.135 µM
- Cmax [9]: 0.135 µM
- Cmax [10]: 0.00846 µM
- Cmax [11]: 0.00971 µM
- Cmax [12]: 0.00774 µM
- Cmax [13]: 0.0105 µM
- Cmax [14]: 0.0171 µM
- Cmax [15]: 0.0126 µM
- Cmax [16]: 0.403 µM
- Cmax [17]: 0.0759 µM
- Cmax [18]: 0.148 µM
- Tmax [19]: 2 h
- Tmax [20]: 1 h
- Tmax [21]: 2 h
- Tmax [22]: 3 h
- Tmax [23]: 2 h
- Tmax [24]: 1 h
- Tmax [25]: 2 h
- AUC(0-t) at 24 h [26]: 0.0287 µM·h
- AUC at 24 h [27]: 0.057 µM·h
- half-life [28]: 3 h
- AUC at 24 h [29]: 0.0806 µM·h
- half-life [30]: 8.5 h
- AUC(0-t) at 24 h [31]: 0.0602 µM·h
- AUC [32]: 0.966 µM·h
- half-life [33]: 9.7 h
- AUC [34]: 0.966 µM·h
- half-life [35]: 9.7 h
- Drug metabolism [36]: Metabolite_Notdetected
- Drug metabolism [37]: Metabolite_Notdetected
- AUC at 672 h [38]: 320 µM·h
- Activity [39]: 24%
- Activity [40]: 75%
- Activity [41]: 92%
- Activity [42]: 112%
- Activity [43]: 5%
- Activity [44]: 70%
- Activity [45]: 15%
- Activity [46]: 518%
- Activity [47]: 476%
- Activity [48]: 230%
- Activity [49]: 195%
- Activity [50]: 518%
- Activity [51]: 416%
